Where “and” joins values, the source holds several entries; their conditions need not be identical. Equal values may be shown once. Read-outs that look alike come from different tables or passages of the source.
Columns and labels:
rSNORF33 [1] = target: T1, rSNORF33 (Rattus norvegicus, UniProt Q923Y9); assay: Cl- currents in Xenopus oocytes expressing rSNORF33 and CFTR (voltage clamp); assay type: cell-based; settings: test compound 100 μM except where noted; 100 nM TYR
rSNORF33 [2] = target: T1, rSNORF33; assay: Intracellular cAMP release in rSNORF33-transfected COS-7 cells; assay type: cell-based; parameters: expressed in transfected cells; host or cells: COS-7 (transient); settings: for Agonist activity at cloned rSNORF33 receptor: data not shown
Method: The receptor-mediated stimulation or inhibition of cyclic AMP (cAMP) formation may be assayed in cells expressing the mammalian receptors. Cells are plated in 96-well plates or other vessels and preincubated in a buffer such as HEPES buffered saline (NaCl (150 mM), CaCl2 (1 mM), KCl (5 mM), glucose (10 mM)) supplemented with a phosphodiesterase inhibitor such as 5 mM theophylline, with or without protease inhibitor cocktail (For example, a typical inhibitor cocktail contains 2 μg/ml aprotinin, […] leupeptin, and 10 μg/ml phosphoramidon.) for 20 min at 37° C., in 5% CO2. Test compounds are added with or without […] forskolin and incubated for an additional 10 min at 37° C. The medium is then aspirated and the reaction stopped by the addition of 100 mM HCl or other methods. The plates are stored at 4° C. for 15 min, and the cAMP content in the stopping solution is measured by radioimmunoassay. Radioactivity may be quantified using a gamma counter equipped with data reduction software. Specific modifications may be performed to optimize the assay for the receptor or to alter the detection method of cAMP.
COS-7 cells were transiently transfected with rSNORF33 gene using the calcium phosphate method and plated in 96-well plates. 48 hours after transfection, cells were washed twice with Dulbecco's phosphate buffered saline (PBS) supplemented with 10 mM HEPES, 10 mM glucose, 5 mM theophylline and 10 μM pargyline and were incubated in the same buffer for 20 min at 37° C., in […] 5% CO2. Test compounds were added and cells were incubated for an additional 10 min at 37° C. The medium was then aspirated and the reaction stopped by the addition of 100 mM HCl. The plates were stored at −20° C. for 2-5 days. For cAMP measurement, plates were thawed and the cAMP content in each well was measured by radioimmunoassay cAMP Scintillation Proximity Assay (Amersham Pharmacia Biotech). Radioactivity was quantified using microbeta Trilux counter (Wallac).

rSNORF33 [3] = target: T1, rSNORF33; assay: [3H]-TYR binding (saturation and displacement) to rSNORF33-transfected COS-7 membranes; parameters: expressed in transfected cells; host or cells: COS-7 (transient); settings: for Ki: rSNORF33 in transfected COS-7 membranes, 2–4 experiments, read-out: Mean Ki ± S.D.M., displacement of [3H]-tyramine
Method: (§1) Radioligand binding assays were performed by diluting membranes prepared from cells expressing the receptor (with co-expression of the rat G-protein alpha S subunit for human SNORF33) in 25 mM Gly-Gly buffer (Sigma, pH=7.4 @ 0° C.) containing 5 mM ascorbate and 10 μM pargyline (final protein concentration in assay=100-300 μg/ml). Membranes were then incubated with either [^3H]-TYR (American Radiochemicals, specific activity 60 mCi/μmole) or [^3H]-T (Amersham, specific activity 98 mCi/μmole) in the presence or absence of competing ligands on ice for 30 min in a total volume of 250 μl in 96 well microtiter plates. The bound ligand was separated from free by filtration through GF/B filters presoaked in 0.5% polyethyleneimine (PEI), using Tomtec (Wallac) or Brandel Cell Harvester vacuum filtration device. After addition of Ready Safe (Beckman) scintillation fluid, bound radioactivity was quantitated using a Trilux (Wallac) scintillation counter (approximately 20% counting efficiency of bound counts). Data was fit to non-linear curves using GraphPad Prism.
(§2) In this manner, agonist or antagonist compounds that bind to the receptor may be identified as they inhibit the binding of the labeled ligand to the membrane protein of cells expressing the said receptor. Non-specific binding was defined as the amount of radioactivity remaining after incubation of membrane protein in the presence of 10 μM of the unlabeled amine corresponding to the radioligand used. In equilibrium saturation binding assays, membrane preparations or intact cells transfected with the receptor are incubated in the presence of increasing concentrations of the labeled compound to determine the binding affinity of the labeled ligand. The binding affinities of unlabeled compounds may be determined in equilibrium competition binding assays, using a fixed concentration of labeled compound in the presence of varying concentrations of the displacing ligands.

hSNORF33 = target: T2, hSNORF33 (Homo sapiens, UniProt Q96RJ0); assay: [3H]-TYR binding (saturation and displacement) to human SNORF33 COS-7 membranes; parameters: expressed in transfected cells; host or cells: COS-7 (membranes); settings: for Ki: human SNORF33 in transfected COS-7 membranes
T2 sequence (Q96RJ0 1-339): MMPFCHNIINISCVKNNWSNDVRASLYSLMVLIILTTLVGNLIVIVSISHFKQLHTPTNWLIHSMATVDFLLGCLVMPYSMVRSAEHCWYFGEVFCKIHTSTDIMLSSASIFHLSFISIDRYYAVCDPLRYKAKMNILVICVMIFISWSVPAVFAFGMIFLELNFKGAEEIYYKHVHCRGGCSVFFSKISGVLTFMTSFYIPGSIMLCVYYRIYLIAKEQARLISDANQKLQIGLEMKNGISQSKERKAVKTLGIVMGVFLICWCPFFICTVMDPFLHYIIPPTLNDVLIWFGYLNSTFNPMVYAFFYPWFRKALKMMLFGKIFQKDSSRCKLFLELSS
Method: as §1, with “[^3H]-TYR and [^3H]-T binding assays were performed essentially as described by Mallard et al. (1992), with minor modifications. Radioligand” for “Radioligand”
as §2

mouse SNORF33 = target: T3, mouse SNORF33 (Mus musculus, UniProt Q923Y8); assay: [3H]-TYR binding (saturation and displacement) to mouse SNORF33 COS-7 membranes; settings: for Ki: mouse SNORF33, displacement of [3H]TYR, n=2, read-out: Average Ki
T3 construct: expressed in transfected cells; host or cells: COS-7 (membranes)
Method: as §1, with “[^3H]-TYR and [^3H]-T binding assays were performed essentially as described by Mallard et al. (1992), with minor modifications. Radioligand” for “Radioligand”
as §2

rSNORF33 [4] = target: T1, rSNORF33; assay: Cl- currents in Xenopus oocytes expressing rSNORF33 and CFTR (voltage clamp); assay type: cell-based; settings: for Cl- currents elicited: at 100 μM
Method: Female Xenopus laevis (Xenopus-1, Ann Arbor, Mich.) were anesthetized in 0.2% tricain (3-aminobenzoic acid ethyl ester, Sigma Chemical Corp.) and a portion of ovary was removed using aseptic technique (Quick and Lester, 1994). Oocytes were defolliculated, using 3 mg/ml collagenase (Worthington Biochemical Corp., Freehold, N.J.) in a solution containing 82.5 mM NaCl, 2 mM KCl, 1 mM MgCl2 and 5 mM HEPES, pH 7.5, and injected (Nanoject, Drummond Scientific, Broomall, Pa.) 24 h later with 50-70 nl of individual mRNAs or mRNA mixtures (see below).
Elevation of intracellular cAMP is monitored in oocytes by expression of the cystic fibrosis transmembrane conductance regulator (CFTR) whose Cl^−-selective pore opens in response to phosphorylation by protein kinase A (Riordan, 1993). To prepare RNA transcripts for expression in oocytes, a template was created by PCR using 5′ and 3′ primers derived from the published sequence of the CFTR gene (Riordan, 1993). The 5′ primer included the sequence coding for T7 polymerase so that transcripts could be generated directly from the PCR products without cloning. Oocytes were injected with 10 ng of CFTR mRNA in addition to 10-15 ng mRNA for SNORF33. Electrophysiological recordings were made after a 2-3 day incubation at 18° C.
Dual electrode voltage clamp (“GeneClamp”, Axon Instruments Inc., Foster City, Calif.) was performed using 3 M KCl-filled glass microelectrodes having resistances of 1-3 Mohms. Unless otherwise specified, oocytes were voltage clamped at a holding potential of −80 mV. During recordings, oocytes were bathed in continuously flowing (1-3 ml/min) medium containing 96 mM NaCl, 2 mM KCl, 1.8 mM CaCl2, 1 mM MgCl2, and 5 mM HEPES, pH 7.5 (ND96). […] Experiments were carried out at room temperature. All values are expressed as mean±standard error of the mean.

[5] = transiently transfected COS-7 cells, 3–8 experiments, read-out: Mean EC50 ± S.E.M., stimulation of rSNORF33 measured by intracellular cAMP release
[6] = read-out: Ki, displacement of [3H]-tyramine
[7] = read-out: Mean Ki ± S.D.M., displacement of [3H]-tyramine

T1 sequence (Q923Y9 whole entry): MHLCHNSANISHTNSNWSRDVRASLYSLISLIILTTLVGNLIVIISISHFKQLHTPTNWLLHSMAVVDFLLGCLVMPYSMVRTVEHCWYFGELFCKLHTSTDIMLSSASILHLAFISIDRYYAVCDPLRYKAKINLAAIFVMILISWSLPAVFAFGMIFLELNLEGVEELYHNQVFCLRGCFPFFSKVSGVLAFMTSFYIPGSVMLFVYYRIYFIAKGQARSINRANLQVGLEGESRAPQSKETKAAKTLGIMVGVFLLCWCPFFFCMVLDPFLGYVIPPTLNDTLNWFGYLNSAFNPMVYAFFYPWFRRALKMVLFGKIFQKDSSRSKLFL
T3 sequence (Q923Y8 whole entry): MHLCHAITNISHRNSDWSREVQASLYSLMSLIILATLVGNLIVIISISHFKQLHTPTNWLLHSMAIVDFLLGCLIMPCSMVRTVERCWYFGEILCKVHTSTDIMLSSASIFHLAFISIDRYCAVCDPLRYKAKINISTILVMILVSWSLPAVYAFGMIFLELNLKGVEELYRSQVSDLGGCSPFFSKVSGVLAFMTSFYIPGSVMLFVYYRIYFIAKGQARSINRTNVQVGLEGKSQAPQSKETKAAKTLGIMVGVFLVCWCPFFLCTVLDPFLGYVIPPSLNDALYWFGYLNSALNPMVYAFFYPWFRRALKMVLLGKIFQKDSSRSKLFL

COC(=O)[C@H]1[C@H]2C[C@H]3c4[nH]c5ccccc5c4CCN3C[C@H]2CC[C@@H]1O [rauwolscine]
Antagonism of TYR stimulation of rSNORF33 (rSNORF33 [1]): did not significantly inhibit

CC(N)C(O)c1ccccc1 (stereo not drawn) [Phenylpropanolamine (PPA), Phenylpropanolamine]
EC50 (rSNORF33 [2]): 1800 ± 1380 nM

Cc1ccc2[nH]cc(CCN)c2c1 [5-Methyl-Tryptamine]
EC50 (rSNORF33 [2]; [5]): 752 ± 285 nM

C1CNCCN1 [piperazine]
Ki (rSNORF33 [3]): 82 nM | Ki (hSNORF33; [6]): > 10000 nM | Ki (mouse SNORF33): 1950 nM

NCCC(=O)c1ccccc1N [Kynuramine]
EC50 (rSNORF33 [2]; [5]): 90 ± 20 nM | Ki (rSNORF33 [3]): 485 ± 9 nM | Ki (hSNORF33; [7]): 1390 ± 810 nM

c1ccc(C2CC2)c(OCC2=NCCN2)c1 [cirazoline]
Inhibition of the response to TYR (rSNORF33 [4]; test compound 100 μM except where noted, 100 nM TYR (EC80)): greater than 90%

CN[C@@H](C)Cc1ccccc1 [Methamphetamine]
EC50 (rSNORF33 [2]; [5]): 115 ± 66 nM | Ki (rSNORF33 [3]): 391 ± 246 nM | Ki (hSNORF33; [7]): 189 ± 102 nM

CN1C[C@H](CNC(=O)OCc2ccccc2)C[C@@H]2c3cccc4c3c(cn4C)C[C@H]21 [metergoline]
Antagonism of TYR stimulation of rSNORF33 (rSNORF33 [1]): significantly block

NCCc1ccc(O)c(O)c1 [Dopamine (DA), Dopamine]
Cl- currents elicited (rSNORF33 [4]): more weakly

Cl.Cl.Clc1cccc(N2CCNCC2)c1 [m-CPP, 1-(3-chlorophenyl)piperazine dihydrochloride]
Ki (rSNORF33 [3]): 83 nM | Displacement of [3H]TYR binding (hSNORF33; human SNORF33, up to 10 μM): no displacement | Ki (hSNORF33; [6]): > 10000 nM | Ki (mouse SNORF33): 3550 nM

COc1ccc2[nH]cc(CCN)c2c1 [5-Methoxy-Tryptamine]
EC50 (rSNORF33 [2]; [5]): 414 ± 161 nM | Ki (rSNORF33 [3]): 209 ± 68 nM

NCCc1c[nH]cn1 [histamine]
Agonist activity at cloned rSNORF33 receptor (rSNORF33 [2]): inactive

NC[C@H](O)c1ccc(O)c(O)c1 [NE, norepinephrine]
Agonist activity at cloned rSNORF33 receptor (rSNORF33 [2]): inactive

Cc1ccc(N(CC2=NCCN2)c2cccc(O)c2)cc1 [phentolamine]
Antagonism of TYR stimulation of rSNORF33 (rSNORF33 [1]): agonist effect

CC(C)NCC(O)COc1cccc2ccccc12 (stereo not drawn) [propanolol]
Antagonism of TYR stimulation of rSNORF33 (rSNORF33 [1]): significantly block

CC(C)NCC(O)COc1cccc2[nH]ccc12 (stereo not drawn) [pindolol]
Antagonism of TYR stimulation of rSNORF33 (rSNORF33 [1]): significantly block

COC(=O)[C@@H]1[C@H]2C[C@H]3c4[nH]c5ccccc5c4CCN3C[C@@H]2CC[C@@H]1O [yohimbine]
Antagonism of TYR stimulation of rSNORF33 (rSNORF33 [1]): did not significantly inhibit

CNCCCN1c2ccccc2CCc2ccccc21 [Desipramine]
EC50 (rSNORF33 [2]; [5]): 4300 ± 1870 nM

NCCc1c[nH]c2ccc(O)cc12 [Serotonin (5-HT), 5-Hydroxytryptamine]
Fold less potent than the three trace amines (TYR, PEA, T) in activating rSNORF33 (rSNORF33 [2]; cAMP assay): 70 fold | EC50 (rSNORF33 [2]; [5]): 1240 ± 526 nM | Ki (rSNORF33 [3]): 976 ± 120 nM | Cl- currents elicited (rSNORF33 [4]): more weakly | EC50 (rSNORF33 [4]; oocytes expressing rSNORF33 and CFTR, -80 mV, mean ± S.E.M., read-out: Calculated EC50, Cl- current): 3776 ± 3.17 nM

CC(COc1ccccc1)N(CCCl)Cc1ccccc1 (stereo not drawn) [Phenoxybenzamine]
Antagonism of TYR stimulation of rSNORF33 (rSNORF33 [1]): irreversible inhibition

NCCc1cccc(O)c1 [3-OH-PEA]
Ki (rSNORF33 [3]): 529 ± 236 nM | Ki (hSNORF33; [7]): 79 ± 16 nM

CN1CCN2c3ccccc3Cc3ccccc3C2C1 (stereo not drawn) [mianserin]
Antagonism of TYR stimulation of rSNORF33 (rSNORF33 [1]): did not significantly inhibit

NCCc1c[nH]c2ccc(F)cc12 [5-Fluoro-Tryptamine]
EC50 (rSNORF33 [2]; [5]): 232 ± 38 nM

NCCc1ccc(O)cc1 [[^3H]-TYR]
Specific binding (rSNORF33 [3]; 20 nM radioligand, rSNORF33): 90% | Bmax, saturation binding (rSNORF33 [3]; rSNORF33 COS-7 membranes, n=2): 1400 fmol/mg protein and 1164 fmol/mg protein | Kd (rSNORF33 [3]; rSNORF33 COS-7 membranes, n=2): 12.5 nM and 14.8 nM | Specific binding as % of total binding (hSNORF33; at about 15 nM [3H]-TYR, human SNORF33): ~70% | Bmax, saturation binding (hSNORF33; human SNORF33 membranes): 440 fmol/mg protein and 603 fmol/mg protein | Specific binding as % of total binding (mouse SNORF33; at about 15 nM [3H]-TYR, mouse SNORF33): approximately 94% | Bmax, saturation binding (mouse SNORF33; mouse SNORF33 membranes): 1090 fmol/mg protein and 848 fmol/mg protein

Reference: patent publication US7517658B2, “Methods for preparing compositions using a SNORF33 receptor” (H. Lundbeck A/S, priority 1999, dated 2009)
